Series [1] in a line: Mean urinary recoveries for DHEA base in the comparison study. Conditions: human volunteers. The class given is in vivo.
Series [2] is described as follows: Comparison of enhanced bioavailability DHEA adsorbate with micronised DHEA: plasma levels (AUC) of DHEA base and sulphate. The class given is in vivo. The settings on record: reference AUC arbitrarily denoted as 100%, 500 mg oral every 8 hours over 24 hours, 9 healthy male human volunteers, read-out: F = absolute bioavailability (DHEA Base). The method, then: In this study an enhanced bioavailability DHEA adsorbate powder of the type prepared in Example 2 was compared with standard micronised DHEA in capsule form. For the formulation in accordance with the invention (hereinafter referred to as 'test') the dose administered was 500 mg of DHEA as adsorbate in powder-sachet form. The standard micronised DHEA (hereinafter referred to as 'reference') was administered as 2 x 250 mg capsules. […] In the study, the test substance was compared in a group of 9 healthy male human volunteers against the reference substance. The dosage regime was 500 mg every 8 hours over a 24 hour period. Plasma samples were taken in each case at intervals up to and including 24 hours post initial dosing and the samples were assayed for DHEA (base and sulphate) levels. DHEA sulphate levels were measured because a substantial portion of the DHEA is converted to the sulphate form in vivo. For the reference substance, the area under the curve (AUC) value are arbitrarily denoted as 100%. The AUC value was then compared and assigned an absolute bioavailability value (%) using the 100% as baseline.

As for `C[C@]12CC[C@H](O)CC1=CC[C@@H]1[C@@H]2CC[C@]2(C)C(=O)CC[C@@H]12` [REFERENCE, dehydroepiandrosterone], the “Mean Urinary Recoveries for DHEA Base” value in series [1] (Day 0) is given as 22.55 ± 8.50 mg/24 h; in series [1] (Day 1), 460.67 ± 179.87 mg/24 h; in series [1] (Day 2), 799.55 ± 191.90 mg/24 h; in series [1] (Day 3) it was 745.88 ± 179.92 mg/24 h; in series [1] (Day 4) it was 694.33 ± 162.07 mg/24 h; in series [1] (Day 5) it was 800.22 ± 156.19 mg/24 h. The bioavailability in series [2] is 100%.
